We go through one molecule from publication PMC5940828, “Analysis of β-tubulin-carbendazim interaction reveals that binding site for MBC fungicides does not include residues involved in fungicide resistance” (Scientific Reports, 2018).

The assay addresses T1, P. xanthii β-tubulin (TUB2), MBC-sensitive (E198) (Podosphaera fusca, UniProt M4QC09).
T1 construct: β-tubulin alone without α-tubulin; E198 allele
The assay can be described thus: intrinsic tryptophan fluorescence quenching, modified Stern-Volmer. The assay is classed as binding. The following applies: double-log; n = 1.41; excitation 295 nm; carbendazim dosed as commercial 50% water-dispersible formulation (Maypon Flow). The text has this:
intrinsic tryptophan fluorescence quenching, modified Stern-Volmer on P. xanthii β-tubulin (TUB2), MBC-sensitive (E198)

T1 sequence (M4QC09 1-447): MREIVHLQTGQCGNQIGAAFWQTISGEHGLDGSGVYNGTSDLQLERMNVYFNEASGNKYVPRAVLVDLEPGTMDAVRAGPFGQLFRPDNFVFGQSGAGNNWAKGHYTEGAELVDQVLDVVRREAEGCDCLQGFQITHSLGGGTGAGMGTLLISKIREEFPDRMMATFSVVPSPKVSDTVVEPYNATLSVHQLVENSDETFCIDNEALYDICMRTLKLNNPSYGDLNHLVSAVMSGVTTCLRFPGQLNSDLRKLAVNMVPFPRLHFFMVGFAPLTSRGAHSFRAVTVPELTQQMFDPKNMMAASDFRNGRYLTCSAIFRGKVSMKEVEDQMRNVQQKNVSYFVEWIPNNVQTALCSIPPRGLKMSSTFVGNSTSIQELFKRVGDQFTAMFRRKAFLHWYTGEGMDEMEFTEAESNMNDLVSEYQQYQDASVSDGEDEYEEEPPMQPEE

As for `COC(=O)Nc1nc2ccccc2[nH]1` [carbendazim, methyl-2-benzimidazole carbamate], the “K^b” value is 1380 M⁻¹.
